In the METLIN SMRT retention time set (Domingo-Almenara et al. 2019):

Test: gradient 5% acetonitrile 3 min, to 50% in 2 min, to 85% in 15 min, held 3 min, 100 µL/min
Details: column: Zorbax Extend-C18 2.1 x 50 mm; eluents: water / acetonitrile, 0.1% formic acid
In short: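 Using water and acetonitrile that each contained 0.1% formic acid, mixtures of ~100 pure standards were separated at 100 μL/min on a Zorbax Extend-C18 column (2.1 × 50 mm, 1.8 μm). The HPLC fed a quadrupole time-of-flight mass spectrometer working in positive and negative ionization mode, with dead and dwell volumes of 40 μL and 900 μL. Data were acquired over 3 months. Retention time was read from computationally picked adduct peaks after manual inspection of each.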

SMILES | RP-LC retention time
Cc1ccc(C)c2c(=O)c3c([nH]c12)CCN(CC(=O)Nc1ccc(F)cc1)C3 | 634 s
CCc1cc(N2CCN(C(=O)c3ccc4c(c3)OCO4)CC2)nc2nnc(C)n12 | 607 s
Cc1nc(-c2ccc3c(c2)n(CC(=O)NCCC2=CCCCC2)c(=O)n3C(C)C)no1 | 915 s
CCn1cnc(S(=O)(=O)N2CCC(C(=O)Nc3cccc(C)c3C)CC2)c1 | 721 s
CCOC(=O)c1cc(S(=O)(=O)NCCC(=O)N2CCN(c3ccccn3)CC2)cn1C | 601 s
Cc1ccnc(N2CCCC(C(=O)NCC3CCN(Cc4ccccc4C)CC3)C2)n1 (stereo unspecified) | 596 s
O=C(NC1CCCC1)C1CCCN(C(=O)c2ccc(F)c(F)c2)C1 (stereo unspecified) | 763 s
Cc1ccc(NC(=O)N2CCC(n3cnc4c(C)cccc4c3=O)CC2)cc1C | 872 s
Cc1sc2ccn(Cc3ccc(F)cc3)c(=O)c2c1C(=O)NCC1CCCO1 (stereo unspecified) | 775 s
O=C(NC1CCCN(c2cc(N3CCCC3)ncn2)C1)c1ccoc1 (stereo unspecified) | 671 s
CSc1cccc2sc(Nc3nc(C)c(C(C)=O)s3)nc12 | 842 s
COc1ccc(-c2ncc(C(=O)Nc3ccc(OC)c(OC)c3)c(-c3ccncc3)n2)cc1 | 769 s
CCC(=O)Nc1nc(-c2ccc3c(c2)N(CC)C(=O)CO3)cs1 | 752 s
Cc1cc(F)ccc1NC(=O)CN1C(=O)CCc2cc(S(=O)(=O)N3CCCCC3C)ccc21 (stereo unspecified) | 920 s
O=C(c1ccc(OCC2CCCN2C(=O)c2cccs2)cc1)N1CCCC1 (stereo unspecified) | 815 s
Cc1noc(C)c1-c1ccc(S(=O)(=O)Nc2cccc(Cl)c2)cc1 | 966 s
O=C(Nc1cccc(Br)c1)N1C[C@H]2C[C@H](C1)[C@H]1CCCC(=O)N1C2 | 708 s
COC1C(=O)N(C2CCN(C(=O)c3cnccn3)CC2)C12CCOCC2 (stereo unspecified) | 555 s
Cc1ccccc1CC(=O)N1CCN(c2cc(C)n3cnnc3n2)CC1 | 608 s
O=C(Nc1cnc(N2CCOCC2)c(C(=O)O)c1)c1ccc(Br)cc1 | 715 s
Cn1nnnc1SCC(=O)NCCOc1ccc(-c2ccc(F)cc2)nn1 | 654 s
Cc1nc(NCCNC(=O)c2cccc(C(F)(F)F)c2)cc(N2CCOCC2)n1 | 588 s
Cn1cccc1C(=O)N1CCN(c2cc(-c3ccc(Cl)cc3)[nH]n2)CC1 | 832 s
O=C(Nc1cccc(F)c1)C1CCc2nc(N3CCCCC3)ncc2C1 (stereo unspecified) | 800 s
CC(=O)N1CCC2(CC1)N(CC1CC1)C(=O)CS2=O (stereo unspecified) | 565 s
CCc1cc(=O)n(CC(=O)Nc2ccc(OC)cc2)c(N2CCOCC2)n1 | 699 s
CCn1ccc(C(=O)Nc2ccc(OCc3nnc(-c4ccc(Cl)cc4)o3)cc2)n1 | 1010 s

SMILES | RP-LC retention time
CCCN1CCN(C(=O)c2c(C)sc3ccn(CC(C)C)c(=O)c23)CC1 | 618 s
O=C(Cn1c(Cc2ccccc2)nc2ccccc21)N1CCCCCC1 | 670 s
COc1ccc(-c2noc(CN3C(=O)COc4cc(C)ccc43)n2)cc1 | 1030 s
O=C(Nc1ccc(N2CCOCC2)cc1)c1cn2c(n1)CSCC2 | 600 s
Cc1noc(-c2cccc(OC3CN(C(=O)c4sccc4C)C3)c2)n1 | 900 s
CSc1nnc(-c2nn(C)c3c2CN(C(=O)c2ccc(Br)cc2)CC3)n1C | 753 s
CCOC(=O)Cc1cc(=O)oc2cc(O)ccc12 | 677 s
COCCn1c(C)cc(O)c(C(c2ccc(OC)cc2)N2CCC(C)CC2)c1=O (stereo unspecified) | 845 s
Cc1ccc(N2CCC(NC(=O)C(C)(C)C)C2=O)cc1C (stereo unspecified) | 802 s
COc1cccc(C2Cn3nnc(-c4nc(-c5ccc(Br)cc5)no4)c3CO2)c1 (stereo unspecified) | 1240 s
O=C(NC1CN2CCC1CC2)c1cc2ccoc2cn1 (stereo unspecified) | 620 s
COC(=O)c1c(NCC2CCCO2)c2cccc(Cl)c2[nH]c1=O (stereo unspecified) | 703 s
CCN1CCN(C(=O)c2nc(-c3ccnc(N4CCCCC4)c3)no2)CC1 | 568 s
CC1CCN(Cc2csc(N3CCN(C(=O)CCCc4ccccc4)CC3)n2)CC1 | 715 s
O=C(COc1ccc(Br)cc1)NCC(c1cccs1)N1CCCC1 (stereo unspecified) | 672 s
CCCC(=O)N1CCCC(COc2ccc(C(=O)NC(C)C)cc2)C1 (stereo unspecified) | 784 s
CCS(=O)(=O)N1C[C@@H](COC)[C@H](C(N)=O)C1 | 560 s
Cn1nc(N2CCC(NC(=O)CCn3cccn3)C2)ccc1=O (stereo unspecified) | 582 s
O=C(NCc1ccccn1)c1ccc2ncnc(N3CCCCC3)c2c1 | 551 s
CCn1cnc(S(=O)(=O)N2CCC(C(=O)N3CCN(c4ccc(F)cc4)CC3)CC2)c1 | 762 s
COC(=O)c1c(NC(=O)CCc2ccc(C)o2)sc(C)c1C | 1110 s
Cc1nnc2cc(N3CCN(C(=O)Nc4cccc(F)c4)CC3)cnn12 | 624 s
CCN(CC)CCOc1ccc(Nc2ncc3cc(-c4c(Cl)cccc4Cl)c(=O)n(C)c3n2)cc1 | 783 s
CCNC(=O)Nc1ccc2c(c1)CN(S(=O)(=O)C(C)C)CCO2 | 676 s
O=C(NCc1csc(-c2cccs2)n1)C1CCN(S(=O)(=O)c2cccs2)CC1 | 830 s
Cc1ccc(CNC(=O)C2CCN(S(=O)(=O)c3cc(-c4noc(C)n4)cs3)CC2)cc1 | 702 s
CCOCC1CCC2(CCN(S(=O)(=O)c3ccc(C)c(F)c3)CC2)O1 (stereo unspecified) | 1090 s

Further lines, results first:

RP-LC retention time | SMILES
879 s | CC(C)CNC(=O)CCn1c(=O)c2ccccc2n2c(=O)n(Cc3ccccc3F)nc12
590 s | NC(=O)CSc1nnnn1-c1ccccc1
785 s | COc1ccc(NC(=O)N2CCC3(C2)C(=O)N(C)c2ccccc23)cc1F (stereo unspecified)
671 s | Cn1nccc1C(=O)N1CCN(c2cc(-c3ccccc3)[nH]n2)CC1
820 s | c1ccc(-c2nc3nccc(-c4ccccn4)n3n2)cc1
623 s | Cc1cnnn1-c1ccc(C(=O)Nc2nccs2)cc1
816 s | O=C(NCc1ccc(F)cc1F)C1CCN(c2nnc(-c3ccccc3)o2)CC1
800 s | CC(=O)c1cccc(NC(=O)c2cnc(-c3ccccc3)nc2-c2ccncc2)c1
626 s | CNC(=O)C1CC(=O)N(c2ccc(C)cc2)C1 (stereo unspecified)
790 s | O=C(Nc1ccccc1F)C1CC(=O)N(CCc2c[nH]c3ccc(F)cc23)C1 (stereo unspecified)
765 s | O=C(NCCc1ccccc1)N1CCN(c2ncccc2-c2nnc(C3CC3)o2)CC1
630 s | C=CCc1cc(C)ccc1OCC(O)Cn1cnc2ccccc21 (stereo unspecified)
683 s | Cc1nn(-c2ccc(F)cc2)c(C)c1S(=O)(=O)N1CCN(c2ccccn2)CC1
609 s | COc1ccc(-c2nc3cnccn3c2NCCC(=O)NC(C)C)cc1
742 s | COc1ccccc1NC(=O)CC(=O)Nc1ccc2nc3n(c(=O)c2c1)CCCCC3
949 s | Cc1cc(C)n(-c2ccc(C(=O)N3CCN(c4ccccc4)CC3)cn2)n1
891 s | Cc1ccc(-c2cc(C(=O)N(C)C)n(C)c2)cc1
640 s | CCN1CCN(C(=O)CSc2nccnc2Sc2ccccc2)CC1
723 s | Cn1ccc2c(cc(C(=O)N3CCN(c4ccccc4F)CC3)n2C)c1=O

RP-LC retention time | SMILES
777 s | COC(=O)C1=CN(c2ccccc2)c2ccccc2S1(=O)=O
713 s | Cc1c(-c2ccnc(N3CCN(Cc4ccccc4)CC3)n2)cnc2nc(-c3ccccc3)nn12
1010 s | COc1ccc(Cl)cc1NC(=O)NC1CCN(c2nc3ccccc3n(C)c2=O)CC1
843 s | O=C(Cc1cccc(Cl)c1)Nc1cc(-c2ccccn2)no1
641 s | O=C(N[C@H]1C[C@@H]2C[C@H]1N(C(=O)c1ccccc1OC(F)(F)F)C2)c1cccnc1
669 s | COC(=O)c1cnc2nc(C)ccc2c1Nc1cc(F)ccc1F
1060 s | CCN1C(=O)COc2ccc(-c3noc(-c4ccc(CS(=O)(=O)c5ccccc5)cc4)n3)cc21
891 s | CN1C(=O)c2ccccc2Oc2ccc(C(=O)NC3CCCCC3)cc21
858 s | CC(=O)Nc1ccccc1SC(CC(=O)c1ccco1)c1ccc2c(c1)OCO2 (stereo unspecified)
743 s | O=C(Nc1nccs1)C1CCN(C(=O)c2cnn(-c3ccccc3)n2)CC1
859 s | COc1ccc(NC(=O)CSc2cc(N3CCN(c4ccc(OC)cc4)CC3)ncn2)cc1
650 s | Cc1nn(C)c(C)c1C(C)NC(=O)C1CCN(c2cnn(Cc3ccccc3)c(=O)c2)CC1 (stereo unspecified)
757 s | O=C(Cn1nc(-c2ccccc2)c2cc(Cl)ccc21)N1CCN(c2ccccn2)CC1
950 s | COc1ccccc1NC(=O)N1CCCC1c1cc(C(C)C)on1 (stereo unspecified)
866 s | O=C(Cc1ccc(NC(=O)c2ncc(-c3ccccc3)o2)cc1)NCc1cccs1
918 s | COc1ccc(NC(=O)C2(C)Oc3cccnc3N(C(C)C)C2=O)cc1 (stereo unspecified)
714 s | O=C(CSCc1ccccc1)Nc1c(-c2ccc(F)cc2)nc2ccccn12
841 s | O=C(CCSc1ccccc1)NCC(O)c1cccc2ccccc12 (stereo unspecified)
